Experimental findings from patent EP0054873A1, “3,4-Di-substituted 1,2,5-oxadiazole-2 oxides, method for their preparation and pharmaceutical compositions containing them” (CASSELLA Aktiengesellschaft, priority 1980, dated 1982) are described below.

In the assay the test system is Bastardhunden. As to the kind of experiment: Haemodynamic study of antianginal and antihypertensive effect in anaesthetised mongrel dogs. Format: in vivo. The settings on record: change from steady state. As for the experimental part:
Die Untersuchungen über die antianginöse und antihypertensive Wirkung der Verbindungen der Formel I wurden an Bastardhunden beiderlei Geschlechts in Pentobarbital-Narkose (30 bis 40 mg/kg i.v.) oder in Urethan-Chloralose-Narkose (3 ml/kg Urethan-Chloralose-Gemisch i.v. = 20 mg/kg Chloralose und 250 mg/kg Urethan) durchgeführt. Die Beatmung der Tiere erfolgte mit einem Bird-Mark-7-Respi- rator. […] Während des gesamten Versuchs erhielten die Tiere mit Pentobarbital-Narkose eine Dauerinfusion von Pentobarbital i.v. = 4 mg/kg/6ml/h, um eine konstante Narkosetiefe zu gewährleisten; die Tiere mit Urethan-Chloralose-Narkose erhielten keine Dauerinfusion. Die Infusion wurde durch die Vena cephalica gegeben. Nach der Präparation des Versuchstieres wurde ca. 1 Stunde gewartet, bis sich alle haemodynamischen Parameter eingestellt hatten (steady state). Danach wurde mit dem eigentlichen Versuch begonnen.
Der systolische und diastolische Blutdruck wurde peripher in der Arteria femoralis über einen Statham-Druckaufnehmer gemessen. Ein über die Arteria carotis in den linken Ventrikel geschobener Millar-Tip-Katheter lieferte das Signal für den LVEDP(linksvcntrikulärer enddiastolischer Druck) und die Herzfrequenz. Mit einem zweiten, über die Vena ju-fularis eingeschobenen Tip-Katheter wurde der mittlere Blutdruck in der Arteria pulmonalis erfaßt. Die erhaltenen Ergebnisse sind in der folgenden Tabelle angegeben.

Turning to `CNC(=O)c1c(C)no[n+]1[O-]` [A], under “Dosis 0,05 mg/kg i.v.”, the “BDm Δ (mittlerer peripherer Blutdruck)” value is reported as -30 mmHg, the “LVEDP Δ (linksventrikulärer enddiastolischer Druck)” value (“LVEDP Δ” below) is given as -3 mm/Hg and the “PAP Δ (mittlerer Pulmonalarteriendruck)” value was -2 mmHg.
With `COCCNC(=O)c1no[n+]([O-])c1C` [B], where the note is “Dosis 0,1 mg/kg i.v.”, the “BDm Δ (mittlerer peripherer Blutdruck)” value is -25 mmHg, the “LVEDP Δ” value was -2,5 mm/Hg and the “PAP Δ (mittlerer Pulmonalarteriendruck)” value is -1 mmHg.
`Cc1c(C(=O)NCc2cccnc2)no[n+]1[O-]` [C]: under “Dosis 0,05 mg/kg i.v.”, the “BDm Δ (mittlerer peripherer Blutdruck)” value is listed as -35 mmHg, the “LVEDP Δ” value is reported as -2 mm/Hg and the “PAP Δ (mittlerer Pulmonalarteriendruck)” value is -1 mmHg.
